The values that follow are results of earlier work, collected in patent publication US20110091459A1, “IMIDAZOLE MODULATORS OF MUSCARINIC ACETYLCHOLINE RECEPTOR M3” (AUSPEX PHARMACEUTICALS, INC., priority 2008, published 2011).

The term half-life denotes the time in which the quantity being followed falls by half.

Molecules are shown by their SMILES.

The conditions of data set [1]: metabolite formed by CYP2A6 mediated hydroxylation of the lactone ring.
The conditions of data set [2]: in vivo.
The conditions of data set [3]: in vivo. The source holds these as a separate data set.

In the case of `CC[C@@]1(O)C(=O)OC[C@H]1Cc1cncn1C` [3-hydroxypilocarpine], the pharmacological activity result in data set [1] was “pharmacologically inactive”.

On to `CC[C@@H]1C(=O)OC[C@@H]1Cc1cncn1C` [Pilocarpine, (3S,4R)-3-ethyl-4-((1-methyl-1H-imidazol-5-yl)methyl)dihydrofuran-2(3H)-one], for which the half-life in data set [2] was 45.6 to 81 min. In data set [3], the adverse effects result was “blurred vision, nightblindness, and pulmonary edema”.
